From PubChem BioAssay AID1963860 (Molecular Pharmacology Branch, DTP, NCI, 2024)

Tested on: CN0375-F725-PDC KRAS spheroid viability
Assay: Anticancer human tumor CN0375-F725-PDC patient-derived colon carcinoma cell line growth inhibition [KRAS2]
Settings: spheroids with HUVEC and MSC; for IC50: curve of first compound; for viability, T/C: stronger effect = lower value
Procedure, shortened: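 Combination screen of spheroid viability in tumor-cell co-cultures with endothelial (HUVEC) and mesenchymal stem cell stroma. Each agent was tested in half-log dilutions, topping at clinical Cmax or at 10 microM without a known Cmax.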

[1] = second compound 0.1 µM, first compound 0.01 µM
[2] = second compound 0.1 µM, first compound 0.0316 µM
[3] = second compound 0.1 µM, first compound 0.1 µM
[4] = second compound 0.1 µM, first compound 0.316 µM
[5] = second compound 0.1 µM, first compound 1 µM
[6] = second compound 0.1 µM, first compound 3.16 µM
[7] = second compound 0.316 µM, first compound 0.01 µM
[8] = second compound 0.316 µM, first compound 0.0316 µM
[9] = second compound 0.316 µM, first compound 0.1 µM
[10] = second compound 0.316 µM, first compound 0.316 µM
[11] = second compound 0.316 µM, first compound 1 µM
[12] = second compound 0.316 µM, first compound 3.16 µM
[13] = second compound 1 µM, first compound 0.01 µM
[14] = second compound 1 µM, first compound 0.0316 µM
[15] = second compound 1 µM, first compound 0.1 µM
[16] = second compound 1 µM, first compound 0.316 µM
[17] = second compound 1 µM, first compound 1 µM
[18] = second compound 1 µM, first compound 3.16 µM
[19] = second compound 3.16 µM, first compound 0.01 µM
[20] = second compound 3.16 µM, first compound 0.0316 µM
[21] = second compound 3.16 µM, first compound 0.1 µM
[22] = second compound 3.16 µM, first compound 0.316 µM
[23] = second compound 3.16 µM, first compound 1 µM
[24] = second compound 3.16 µM, first compound 3.16 µM
[25] = second compound 10 µM, first compound 0.01 µM
[26] = second compound 10 µM, first compound 0.0316 µM
[27] = second compound 10 µM, first compound 0.1 µM
[28] = second compound 10 µM, first compound 0.316 µM
[29] = second compound 10 µM, first compound 1 µM
[30] = second compound 10 µM, first compound 3.16 µM
[31] = second compound 0.1 µM, first compound 10 µM
[32] = second compound 0.316 µM, first compound 10 µM
[33] = second compound 1 µM, first compound 10 µM
[34] = second compound 3.16 µM, first compound 10 µM
[35] = second compound 10 µM, first compound 10 µM
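Note: spheroids exposed to agents for 7 days.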

| Structure (SMILES) | IC50 (second compound 0.1 µM) [µM] | IC50 (second compound 0.316 µM) [µM] | IC50 (second compound 1 µM) [µM] | IC50 (second compound 3.16 µM) [µM] | IC50 (second compound 10 µM) [µM] | viability, T/C [2] [%] | viability, T/C [3] [%] | viability, T/C [4] [%] | viability, T/C [5] [%] | viability, T/C [8] [%] | viability, T/C [9] [%] | viability, T/C [10] [%] | viability, T/C [11] [%] | viability, T/C [14] [%] | viability, T/C [15] [%] | viability, T/C [16] [%] | viability, T/C [17] [%] | viability, T/C [20] [%] | viability, T/C [21] [%] | viability, T/C [22] [%] | other results |
| --- | --- | --- | --- | --- | --- | --- | --- | --- | --- | --- | --- | --- | --- | --- | --- | --- | --- | --- | --- | --- | --- |
| CC1COCCN1c1cc(-c2ccnn2C)c2ccnc(-c3ccn[nH]3)c2n1 (stereo not given) + C=CC(=O)N1CCN(c2nc(=O)n(-c3c(C)ccnc3C(C)C)c3nc(-c4c(O)cccc4F)c(F)cc23)C(C)C1 | > 3.16 | > 3.16 | > 3.16 | > 3.16 | 1.78 | 99.4 | 88.8 | 81.6 | 65.5 | 95.3 | 80 | 78.2 | 65.5 | 103 | 89 | 80.5 | 65.6 | 107 | 89.3 | 76.7 | viability, T/C [1]: 107%; viability, T/C [6]: 55.8%; viability, T/C [7]: 104%; viability, T/C [12]: 52.6%; viability, T/C [13]: 100%; viability, T/C [18]: 53.8%; viability, T/C [19]: 101%; viability, T/C [23]: 64.4%; viability, T/C [24]: 53.5%; viability, T/C [25]: 102%; viability, T/C [26]: 103%; viability, T/C [27]: 84.5%; viability, T/C [28]: 71.7%; viability, T/C [29]: 55.5%; viability, T/C [30]: 44.6% |
| CCN1CCN(Cc2ccc(Nc3ncc(F)c(-c4cc(F)c5nc(C)n(C(C)C)c5c4)n3)nc2)CC1 + C=CC(=O)N1CCN(c2nc(=O)n(-c3c(C)ccnc3C(C)C)c3nc(-c4c(O)cccc4F)c(F)cc23)C(C)C1 | > 1 | > 1 | > 1 | > 1 | 0.947 | 88.9 | 96.4 | 107 | 95.4 | 86.8 | 91.2 | 107 | 98.3 | 89.6 | 98.7 | 115 | 105 | 93.9 | 90.7 | 111 | viability, T/C (second compound 0.1 µM, first compound 0.00316 µM): 105%; viability, T/C [1]: 96.2%; viability, T/C (second compound 0.316 µM, first compound 0.00316 µM): 106%; viability, T/C [7]: 105%; viability, T/C (second compound 1 µM, first compound 0.00316 µM): 104%; viability, T/C [13]: 107%; viability, T/C (second compound 3.16 µM, first compound 0.00316 µM): 108%; viability, T/C [19]: 107%; viability, T/C [23]: 102%; viability, T/C (second compound 10 µM, first compound 0.00316 µM): 101%; viability, T/C [25]: 108%; viability, T/C [26]: 87.8%; viability, T/C [27]: 80.7%; viability, T/C [28]: 97.8%; viability, T/C [29]: 47.8% |
| CCNC(=O)CC1N=C(c2ccc(Cl)cc2)c2cc(OC)ccc2-n2c(C)nnc21 (stereo not given) + C=CC(=O)N1CCN(c2nc(=O)n(-c3c(C)ccnc3C(C)C)c3nc(-c4c(O)cccc4F)c(F)cc23)C(C)C1 | > 10 | > 10 | > 10 | > 10 | > 10 | 100 | 95.8 | 88.1 | 86 | 99.9 | 99.5 | 84.5 | 82 | 104 | 104 | 87.3 | 86.8 | 104 | 94.9 | 88.4 | viability, T/C [6]: 74.7%; viability, T/C [31]: 57.4%; viability, T/C [12]: 71.1%; viability, T/C [32]: 58%; viability, T/C [18]: 75.5%; viability, T/C [33]: 64.7%; viability, T/C [23]: 85.1%; viability, T/C [24]: 67.9%; viability, T/C [34]: 59%; viability, T/C [26]: 102%; viability, T/C [27]: 99%; viability, T/C [28]: 84.6%; viability, T/C [29]: 71.6%; viability, T/C [30]: 73.9%; viability, T/C [35]: 60.8% |
| Cn1nccc1Nc1nccc(-c2cc3c(s2)C(C)(C)N(CCN2CCOCC2)C3=O)n1 + C=CC(=O)N1CCN(c2nc(=O)n(-c3c(C)ccnc3C(C)C)c3nc(-c4c(O)cccc4F)c(F)cc23)C(C)C1 | 6.96 | 5.32 | > 10 | 2.34 | 0.674 | 117 | 88 | 70.1 | 70.6 | 120 | 93.9 | 64.3 | 63.8 | 119 | 99.3 | 66 | 61.2 | 120 | 105 | 67.8 | viability, T/C [6]: 55.5%; viability, T/C [31]: 45.3%; viability, T/C [12]: 54.3%; viability, T/C [32]: 45%; viability, T/C [18]: 54.9%; viability, T/C [33]: 46.1%; viability, T/C [23]: 60.3%; viability, T/C [24]: 50.2%; viability, T/C [34]: 42.4%; viability, T/C [26]: 103%; viability, T/C [27]: 101%; viability, T/C [28]: 61.7%; viability, T/C [29]: 48.8%; viability, T/C [30]: 45.4%; viability, T/C [35]: 32.2% |
